The test system of one test is A431 cells. The test is described as follows: Drug matrix screen: siRNA knockdown and cell viability. The class given is cell-based. The settings on record: for shift in drug sensitivity (cell viability) upon siRNA knockdown of γ-tubulin ring complex genes: knockdown of GCNT1, TUBGCP4 and TUBGCP6 relative to CON3 siRNA control, at drug concentrations yielding <60% cell viability; for drug sensitivity / cell killing upon EGFR siRNA knockdown: EGFR siRNA control. As to the method: An siRNA library was produced based targeting genes identified from methods listed above. The siRNA panel in 96 well plates (Dharmacon) was diluted to 66 nM/15 μl was combined with equal volume of RNAiMax Lipofectamine (Life Technologies) diluted to 0.15×/15 μl, pipette mixed thoroughly then allowed to incubate for 15 minutes at room temperature before addition of 30 μl/well to A431, U87MG_del, and U87MG_EGFR cell lines seeded in 96 well plates at 4500 cells/70 μl/well. Plates were incubated in 37° C. 5% CO2 incubator for 18-24 hours prior to addition of 10 μl drug (MMAE: 1.5 nM final conc., depatuxizumab mafodotin: 18 nM final conc.) or vehicle (phosphate-buffered saline, PBS). Cell viability was assessed post 48 hour drug treatment via Cell Titer Glo (Promega) for A431 cell line or SRB cell stain assay (Sulforhodamine B assay and Chemosensitivity, Voigt et al.) for U87MG_del2.7 and U87MG_EGFR cell lines following recommended protocols with the following exception: media was aspirated off Cell Titer Glo (CTG) plates and 100 μl 1:5 diluted CTG in PBS added per well, covered with foil, rotated to mix 15 minutes prior to reading on Victor chemilluminescent reader. The assay was performed using triplicate plates per drug/vehicle as well as last row of plate contained control siRNA CON3 incubated with vehicle to control for any plate effect. Each plate also contained a row of positive and negative siRNA controls treated with drug for normalization of effects of siRNA KD within and across plates. Effect of siRNA KD assessed via combination of triplicate reactions per siRNA/drug normalized to CON3 siRNA/PBS control and then normalized to CON3 siRNA/drug to determine shift to drug with siRNA KD.
A protocol similar to high-throughput screen was used, except siRNA was loaded in a 3×6 well matrix in a 96 well plate with the following siRNAs (CON3, GCNT1, TUBGCP4, TUBGCP6) per quarter plate. EGFR siRNA was loaded in exterior rows as a control. Drug was diluted to 5 serial-5 dilutions (MMAE, Vincristine, Paclitaxel) or 5 serial 3-dilutions (depatuxizumab mafodotin) along with no drug control and added to triplicate wells (starting concentrations MMAE: 100 nM; Vincristine: 2000 nM; Paclitaxel: 2000 nM; depatuxizumab mafodotin: 99 nM).

Test [1] deals with glioblastoma with EGFR amplification. The test is described as follows: Phase 1 study M12-356 (NCT01800695), tumor response. The format is in vivo, human. To be noted: patients with EGFR-amplified rGBM; FIG. 1. As to the method: In a Phase 1 study (M12-356, NCT01800695) of depatuxizumab mafodotin in patients with newly diagnosed glioblastoma (nGBM) and recurrent glioblastoma (rGBM) with EGFR amplification, responses in patients with rGBM correlated with EGFR amplification in pre-treatment, archival tumor tissue. Gene amplification was determined by fluorescence in situ hybridization (FISH). Two probes were used: locus-specific EGFR probe and chromosome enumeration probe (CEP) 7. FIG. 1 illustrates change in tumor size in patients with EGFR-amplified rGBM.
Tumor samples for study were from biopsies taken prior to entry onto depatuxizumab mafodotin trial M12-356 (NCT01800695). M12-356 is an open-label, phase 1, 3-arm study: Arm A (depatuxizumab mafodotin+radiation/temozolomide (TMZ) in newly diagnosed GBM; Arm B (depatuxizumab mafodotin+TMZ in newly diagnosed GBM as adjuvant therapy, or in recurrent GBM); and Arm C (depatuxizumab mafodotin monotherapy in recurrent GBM). Arms B and C had and expansion cohort in subjects with centrally confirmed EGFR amplified recurrent GBM.

Results on four molecules are retold here after US20190231893A1, “METHODS OF TREATING CANCER” (priority 2017, published 2019).

Entries after “also recorded” stand apart in the source; their conditions may differ. Square brackets hold non-standard residues; d marks the D form. Peptide text beside a SMILES is read from it. * marks the point of attachment. Dolaproine = CO[C@@H]([C@@H]1CCCN1)[C@@H](C)C(=O)O; Dil = CC[C@H](C)[C@H](NC)[C@@H](CC(=O)O)OC; X1 = C[C@@H](N*)[C@@H](O)c1ccccc1; NMeV = CN[C@H](C(=O)O)C(C)C

As to `CC[C@H](C)[C@@H]([C@@H](CC(=O)N1CCC[C@H]1[C@H](OC)[C@@H](C)C(=O)N[C@H](C)[C@@H](O)c1ccccc1)OC)N(C)C(=O)[C@@H](NC(=O)[C@@H](NC)C(C)C)C(C)C` [MMAE, monomethyl auristatin E] (H-[NMeV]V[Dil][Dolaproine]-X1), the “shift in drug sensitivity (cell viability) upon siRNA knockdown of γ-tubulin ring complex genes” value (from here on “shift in drug sensitivity”) in the test on A431 cells (FIG. 3) is listed as “impacted sensitivity; also recorded: more sensitive; also recorded: increased sensitivity”.
Still for that read-out and setting: next, `CC(=O)O[C@H]1C(=O)[C@@]2(C)[C@H]([C@H](OC(=O)c3ccccc3)[C@]3(O)C[C@H](OC(=O)[C@H](O)[C@@H](NC(=O)c4ccccc4)c4ccccc4)C(C)=C1C3(C)C)[C@]1(OC(C)=O)CO[C@@H]1C[C@@H]2O` [Paclitaxel]: “no additional shift in sensitivity”.
With `CC[C@]1(O)C[C@H]2CN(CCc3c([nH]c4ccccc34)[C@@](C(=O)OC)(c3cc4c(cc3OC)N(C=O)[C@H]3[C@@](O)(C(=O)OC)[C@H](OC(C)=O)[C@]5(CC)C=CCN6CC[C@]43[C@@H]65)C2)C1` [Vincristine], the “shift in drug sensitivity” value with A431 cells (FIG. 3) was “increased sensitivity”; with A431 cells (FIG. 3, listed as vincristine) it was “impacted sensitivity; also recorded: more sensitive”.
In the case of depatuxizumab mafodotin, in the test on A431 cells (FIG. 3), the “drug sensitivity / cell killing upon EGFR siRNA knockdown” value is given as “loss of drug sensitivity” and the “shift in drug sensitivity” value is “increased sensitivity”. Besides, in the test with A431 cells (FIG. 3, listed as depatux-m), the “drug sensitivity / cell killing upon EGFR siRNA knockdown” value was “abrogated drug internalization and cell killing”; the “shift in drug sensitivity” value was “impacted sensitivity; also recorded: more sensitive; also recorded: sensitization”. Moreover, the “clinical response (change in tumor size)” value in test [1] is listed as “not all patients with EGFR amplification responded”.
